From article PMC7265552 (Scientific Reports, 2020)
Numbering of substitutions follows the chain as printed. Read-outs that look alike come from different tables or passages of the source.

Columns and labels:
[1] = target: T1, mouse WT TYK2 (Mus musculus, UniProt Q9R117); experiment: JAK Caliper enzyme end-point IC50 assay, mouse WT TYK2; assay type: biochemical
T1 construct: His-tagged recombinant human TYK2, mouse TYK2, and human TYK2 I960V mutant kinase domains were expressed in insect cell/baculovirus systems; His; made in house; host or cells: insect cell/baculovirus
T1 sequence (Q9R117 894-1166 limits assumed): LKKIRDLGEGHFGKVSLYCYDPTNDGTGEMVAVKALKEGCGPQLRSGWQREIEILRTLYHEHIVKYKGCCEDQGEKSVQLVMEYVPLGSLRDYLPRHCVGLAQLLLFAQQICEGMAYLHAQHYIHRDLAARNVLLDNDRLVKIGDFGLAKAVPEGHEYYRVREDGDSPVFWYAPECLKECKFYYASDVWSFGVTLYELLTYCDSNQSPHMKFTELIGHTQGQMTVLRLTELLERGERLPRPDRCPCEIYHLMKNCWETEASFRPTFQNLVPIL

[2] = target: T2, human TYK2 I960V mutant (Homo sapiens, UniProt P29597, I960V); experiment: JAK Caliper enzyme end-point IC50 assay, human TYK2 I960V mutant; details: read-out: Human TYK2 I960V IC50; ATP 1 mM; geometric mean ± SD
T2 sequence (P29597 897-1176 I960V limits assumed): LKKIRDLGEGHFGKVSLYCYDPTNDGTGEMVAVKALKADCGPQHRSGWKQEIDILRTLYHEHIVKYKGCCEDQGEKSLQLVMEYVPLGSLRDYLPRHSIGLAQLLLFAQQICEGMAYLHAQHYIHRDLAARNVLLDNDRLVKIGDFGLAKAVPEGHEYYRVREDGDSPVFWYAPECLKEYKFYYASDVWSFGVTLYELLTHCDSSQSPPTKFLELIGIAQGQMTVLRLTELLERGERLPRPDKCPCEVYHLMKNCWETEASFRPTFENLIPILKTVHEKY

[3] = target: T3, human WT TYK2 (Homo sapiens, UniProt P29597); experiment: JAK Caliper enzyme end-point IC50 assay, human WT TYK2; assay type: biochemical; details: ATP 1 mM; geometric mean ± SD
T3 construct: His-tagged recombinant human TYK2, mouse TYK2, and human TYK2 I960V mutant kinase domains were expressed in insect cell/baculovirus systems; His; made in house; host or cells: insect cell/baculovirus
T3 sequence (P29597 897-1176 limits assumed): T2 sequence (P29597 897-1176 I960V limits assumed) with V64I

[4] = test system: IL-12 (TYK2/JAK2) induced pSTAT4; experiment: Phospho-STAT inhibition in lymphocytes, IL-12, mouse WT; assay type: cell-based, mouse (C57BL/6); details: Leukocyte, read-out: IL-12 (TYK2/JAK2) induced pSTAT4 IC50, Mouse WT
[5] = test system: IL-15 (JAK1/JAK3) induced pSTAT5; experiment: Phospho-STAT inhibition in lymphocytes, IL-15, human; assay type: cell-based; details: Leukocyte, read-out: IL-15 (JAK1/JAK3) induced pSTAT5 IC50, Human WT
[6] = test system: IL-12 (TYK2/JAK2) induced pSTAT4; experiment: Phospho-STAT inhibition in lymphocytes, IL-12, mouse V980I knock-in; assay type: cell-based, mouse (C57BL/6 TYK2 V980I knock-in); details: Lymphocyte, read-out: IL-12 (TYK2/JAK2) induced pSTAT4 IC50, Mouse V980I KI
[7] = test system: IL-15 (JAK1/JAK3) induced pSTAT5; experiment: Phospho-STAT inhibition in lymphocytes, IL-15, mouse WT; assay type: cell-based, mouse (C57BL/6); details: Leukocyte, read-out: IL-15 (JAK1/JAK3) induced pSTAT5 IC50, Mouse WT
[8] = test system: IL-12/IL-18 induced IFNγ production; experiment: PK/PD IL-12/18 induced interferonγ production model, TYK2 V980I mice; assay type: in vivo, C57BL/6 TYK2 V980I mice; details: Mus musculus, 4 h, read-out: IC50 (IC50,u) for inhibition of IL-12/IL-18-induced IFNγ production
[9] = test system: IL-12 (TYK2/JAK2) induced pSTAT4; experiment: Phospho-STAT inhibition in lymphocytes, IL-12, human; assay type: cell-based; details: geomean ± SD, four experiments
[10] = test system: IL-12 (TYK2/JAK2) induced pSTAT4; experiment: Phospho-STAT inhibition in lymphocytes, IL-12, monkey; assay type: cell-based, monkey (cynomolgus); details: Primates, Leukocyte, read-out: IL-12 (TYK2/JAK2) induced pSTAT4 IC50, Monkey WT
[11] = test system: IL-12 (TYK2/JAK2) induced pSTAT4; experiment: Phospho-STAT inhibition in lymphocytes, IL-12, dog; assay type: cell-based, dog (Beagle); details: Canis lupus familiaris, Leukocyte, read-out: IL-12 (TYK2/JAK2) induced pSTAT4 IC50, Dog WT
[12] = test system: IL-12/IL-18 induced IFNγ production; experiment: PK/PD IL-12/18 induced interferonγ production model, wild type mice; assay type: in vivo, C57BL/6 wild type mice; details: Mus musculus, 4 h, read-out: IC50 (IC50,u) for inhibition of IL-12/IL-18-induced IFNγ production

What does the source list for Cn1cc(Nc2nccc(N3C[C@H]4CC[C@@H](C3)N4CCC#N)n2)cn1 [Compound 22]?
IC50 ([1]; ATP 1 mM, geometric mean ± SD): 1330 ± 396 nM; IC50 [2]: 1020 ± 263 nM; IC50 [3]: 73 ± 18 nM

With Cc1cnc(Nc2cnn(CCO)c2)nc1N1CC2C[C@@]2(NC(=O)C2CC2)C1 (some centres unmarked) [Compound 20] as the molecule, how does the IC50 ([1]; ATP 1 mM, geometric mean ± SD) read?
Its IC50 is 784 ± 207 nM.

And the IC50 [2]?
The IC50 was 435 ± 174 nM.

And the IC50 [3]?
The IC50 was 67 ± 21 nM.

Cc1cnc(Nc2cnn(C)c2)nc1N1C[C@H]2[C@@H](C)[C@@]2(NC(=O)C2CC2)C1 [Compound 21] was tested. Which IC50 ([1]; ATP 1 mM, geometric mean ± SD) did it give?
Its IC50 is 1160 ± 1040 nM.

And the IC50 [2]?
Its IC50 is 484 ± 369 nM.

What about the IC50 [3] of the same molecule?
Its IC50 is 50 ± 46 nM.

What does the source list for CCNC(=O)c1ncc(Nc2ncc(Cl)c(N3C[C@H]4C[C@@]4(NC(=O)C4CC4)C3)n2)cc1C [Compound 18]?
IC50 ([1]; ATP 1 mM, geometric mean ± SD): 841 ± 989 nM; IC50 [2]: 538 ± 622 nM; IC50 [3]: 35 ± 34 nM

With CCNC(=O)c1ccc(Nc2ncc(C)c(N3C[C@H]4C[C@@H]3CN4S(C)(=O)=O)n2)cc1 [Compound 15] as the molecule, how does the IC50 ([1]; ATP 1 mM, geometric mean ± SD) read?
The IC50 was 5240 ± 605 nM.

And the IC50 [2]?
Its IC50 is 3590 ± 257 nM.

What about the IC50 [3] of the same molecule?
Its IC50 is 371 ± 37 nM.

Which IC50 ([1]; ATP 1 mM, geometric mean ± SD) does the source give for Cc1cnc(Nc2cnn(C)c2)nc1N1C[C@H]2CC[C@@H](C1)N2C(=O)[C@@H]1CC1(F)F [Compound 28] here?
Its IC50 is 180 ± 89 nM.

And the IC50 [2]?
The IC50 was 55 ± 25 nM.

And the IC50 [3]?
Its IC50 is 15 ± 6 nM.

CCNC(=O)c1ncc(Nc2ncc(F)c(N3C[C@H]4CC[C@@H](C3)N4CCC#N)n2)cc1C [Compound 17] was tested. Which IC50 ([1]; ATP 1 mM, geometric mean ± SD) did it give?
The IC50 was 1520 ± 217 nM.

And the IC50 [2]?
Its IC50 is 1220 ± 220 nM.

And the IC50 [3]?
Its IC50 is 46 ± 11 nM.

What does the source list for CNC(=O)c1ncc(Nc2nccc(N3C[C@H]4C[C@@]4(NC(=O)C4CC4)C3)n2)cc1C [Compound 19]?
IC50 ([1]; ATP 1 mM, geometric mean ± SD): 8160 ± 2030 nM; IC50 [2]: 7390 ± 1950 nM; IC50 [3]: 208 ± 51 nM

What does the source list for Cn1cc(Nc2ncc(F)c(N3C[C@H]4C[C@@]4(NC(=O)[C@@H]4CC4(F)F)C3)n2)cn1 [Compound 26]?
IC50 ([1]; ATP 1 mM, geometric mean ± SD): 2120 ± 465 nM; IC50 [2]: 1560 ± 257 nM; IC50 [3]: 38 ± 8 nM

Cn1cc(Nc2ncc(Cl)c(N3C[C@H]4CC[C@@H](C3)N4C(=O)[C@@H]3CC3(F)F)n2)cn1 [Compound 29] was tested. Which IC50 ([1]; ATP 1 mM, geometric mean ± SD) did it give?
The IC50 was 100 ± 17 nM.

What about the IC50 [2] of the same molecule?
Its IC50 is 30 ± 1 nM.

What about the IC50 [3] of the same molecule?
Its IC50 is 8 ± 4 nM.

How did the IC50 ([1]; ATP 1 mM, geometric mean ± SD) turn out when C[C@@H]1C2CN(c3nc(Nc4cn[nH]c4)ncc3F)C[C@@]21NC(=O)[C@H]1CC1(F)F (some centres unmarked) [Compound 23] was run?
The IC50 was 466 ± 78 nM.

What about the IC50 [2] of the same molecule?
The IC50 was 388 ± 50 nM.

And the IC50 [3]?
Its IC50 is 13 ± 4 nM.

Which results are given for C[C@@H]1[C@@H]2CN(c3nc(Nc4cnn(C)c4)ncc3F)C[C@]12NC(=O)[C@@H]1CC1(F)F [PF-06673518]?
IC50 [4]: 518 ± 84 nM; IC50 [1]: 1410 nM; IC50 [5]: 135 ± 15 nM; IC50 [6]: 128 ± 11 nM; IC50 [7]: 127 ± 6.7 nM; IC50 [8]: 26.6 nM; IC50 ([9]; Homo sapiens, Leukocyte, read-out: IL-12 (TYK2/JAK2) induced pSTAT4 IC50, Human WT, human leukocytes, no serum or other proteins): 64 nM; IC50 ([9]; read-out: IL-12 (TYK2/JAK2) induced pSTAT4 IC50, Human WT, human leukocytes, no serum or other proteins): 64.3 ± 10 nM; IC50 [10]: 527 ± 147 nM; IC50 [11]: 679 ± 254 nM; IC50 [12]: 1280 nM

How did the IC50 ([1]; ATP 1 mM, geometric mean ± SD) turn out when CCNC(=O)c1ccc(Nc2nccc(N3C[C@H]4C[C@@H](C3)N4C(=O)C(F)(F)F)n2)cc1 [Compound 16] was run?
Its IC50 is 3580 ± 1980 nM.

What about the IC50 [2] of the same molecule?
Its IC50 is 2570 ± 1560 nM.

And the IC50 [3]?
The IC50 was 135 ± 89 nM.
